# According to BindingDB's records for PubMed 9103528 (Pharmacia & Upjohn, 1997):
# How the values were obtained:
# [1] = target: 5-hydroxytryptamine receptor 2A (Rattus norvegicus, UniProt P14842)
# [2] = target: T1, Muscarinic acetylcholine receptor M2 (Rattus norvegicus, UniProt P10980)
# T1 sequence (P10980 whole entry): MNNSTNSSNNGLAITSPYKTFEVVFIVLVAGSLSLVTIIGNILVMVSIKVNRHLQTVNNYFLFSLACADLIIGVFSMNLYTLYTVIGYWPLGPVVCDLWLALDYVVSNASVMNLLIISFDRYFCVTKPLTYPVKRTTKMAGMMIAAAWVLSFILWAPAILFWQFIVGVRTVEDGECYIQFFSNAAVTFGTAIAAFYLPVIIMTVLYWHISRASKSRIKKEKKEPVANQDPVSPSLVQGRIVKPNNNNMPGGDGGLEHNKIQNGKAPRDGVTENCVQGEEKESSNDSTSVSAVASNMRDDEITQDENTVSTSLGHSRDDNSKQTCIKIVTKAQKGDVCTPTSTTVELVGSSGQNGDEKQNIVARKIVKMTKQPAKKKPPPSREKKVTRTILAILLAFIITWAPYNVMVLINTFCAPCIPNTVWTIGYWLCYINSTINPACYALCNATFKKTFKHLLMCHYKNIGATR
# [3] = target: T2, Alpha-2C adrenergic receptor (Rattus norvegicus, UniProt P22086)
# T2 sequence (P22086 whole entry): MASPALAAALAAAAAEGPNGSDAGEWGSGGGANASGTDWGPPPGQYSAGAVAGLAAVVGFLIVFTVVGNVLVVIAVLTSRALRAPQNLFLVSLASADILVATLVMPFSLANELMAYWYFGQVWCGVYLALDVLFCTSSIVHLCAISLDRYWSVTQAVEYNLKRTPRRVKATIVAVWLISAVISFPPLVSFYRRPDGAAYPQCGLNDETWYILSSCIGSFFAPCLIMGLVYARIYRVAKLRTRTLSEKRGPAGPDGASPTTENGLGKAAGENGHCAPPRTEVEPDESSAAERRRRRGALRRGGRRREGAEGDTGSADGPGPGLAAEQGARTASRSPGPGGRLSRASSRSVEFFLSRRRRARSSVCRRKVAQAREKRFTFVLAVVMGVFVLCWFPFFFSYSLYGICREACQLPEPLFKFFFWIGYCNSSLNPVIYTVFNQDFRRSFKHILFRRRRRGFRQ
# [4] = target: T3, 5-hydroxytryptamine receptor 1A (Rattus norvegicus, UniProt P19327)
# T3 sequence (P19327 whole entry): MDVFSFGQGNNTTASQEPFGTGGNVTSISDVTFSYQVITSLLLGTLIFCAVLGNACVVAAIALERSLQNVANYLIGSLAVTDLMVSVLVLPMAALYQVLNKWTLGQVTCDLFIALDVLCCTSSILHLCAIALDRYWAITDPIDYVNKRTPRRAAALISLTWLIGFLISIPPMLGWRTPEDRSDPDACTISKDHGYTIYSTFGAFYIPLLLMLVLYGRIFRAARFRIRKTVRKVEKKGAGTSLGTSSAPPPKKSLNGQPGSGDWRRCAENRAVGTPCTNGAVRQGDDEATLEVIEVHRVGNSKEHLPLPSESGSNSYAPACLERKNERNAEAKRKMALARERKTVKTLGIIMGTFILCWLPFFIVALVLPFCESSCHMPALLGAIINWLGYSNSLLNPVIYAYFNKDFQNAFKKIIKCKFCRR
# D(2) dopamine receptor = D(2) dopamine receptor (Rattus norvegicus, UniProt P61169)
# Chain of D(2) dopamine receptor (P61169 whole entry): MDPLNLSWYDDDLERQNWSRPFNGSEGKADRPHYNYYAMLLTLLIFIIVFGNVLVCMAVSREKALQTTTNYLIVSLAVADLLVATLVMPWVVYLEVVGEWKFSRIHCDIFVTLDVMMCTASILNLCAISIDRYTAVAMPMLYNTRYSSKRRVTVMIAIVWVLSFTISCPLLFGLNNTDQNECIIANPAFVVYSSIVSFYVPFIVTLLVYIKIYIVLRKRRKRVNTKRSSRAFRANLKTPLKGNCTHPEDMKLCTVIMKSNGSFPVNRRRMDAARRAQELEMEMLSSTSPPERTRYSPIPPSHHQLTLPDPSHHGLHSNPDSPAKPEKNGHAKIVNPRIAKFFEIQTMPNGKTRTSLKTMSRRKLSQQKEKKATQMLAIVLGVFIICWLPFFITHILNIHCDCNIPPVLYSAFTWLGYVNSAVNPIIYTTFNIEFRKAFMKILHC
# [5] = target: T4, Alpha-1A adrenergic receptor (Rattus norvegicus, UniProt P43140)
# T4 sequence (P43140 whole entry): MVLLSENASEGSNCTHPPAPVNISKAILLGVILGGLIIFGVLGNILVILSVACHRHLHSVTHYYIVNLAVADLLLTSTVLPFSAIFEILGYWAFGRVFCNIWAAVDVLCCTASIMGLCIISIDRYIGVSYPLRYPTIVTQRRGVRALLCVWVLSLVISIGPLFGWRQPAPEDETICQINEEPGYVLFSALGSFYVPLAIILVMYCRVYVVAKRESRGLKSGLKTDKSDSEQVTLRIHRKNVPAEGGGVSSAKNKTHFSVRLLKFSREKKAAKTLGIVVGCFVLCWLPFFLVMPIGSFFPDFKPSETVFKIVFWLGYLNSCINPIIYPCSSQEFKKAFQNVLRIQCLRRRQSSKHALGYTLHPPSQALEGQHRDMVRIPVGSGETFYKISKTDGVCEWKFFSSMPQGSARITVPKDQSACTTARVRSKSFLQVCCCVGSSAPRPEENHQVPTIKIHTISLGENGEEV
# Chain of 5-hydroxytryptamine receptor 2A (P14842 whole entry): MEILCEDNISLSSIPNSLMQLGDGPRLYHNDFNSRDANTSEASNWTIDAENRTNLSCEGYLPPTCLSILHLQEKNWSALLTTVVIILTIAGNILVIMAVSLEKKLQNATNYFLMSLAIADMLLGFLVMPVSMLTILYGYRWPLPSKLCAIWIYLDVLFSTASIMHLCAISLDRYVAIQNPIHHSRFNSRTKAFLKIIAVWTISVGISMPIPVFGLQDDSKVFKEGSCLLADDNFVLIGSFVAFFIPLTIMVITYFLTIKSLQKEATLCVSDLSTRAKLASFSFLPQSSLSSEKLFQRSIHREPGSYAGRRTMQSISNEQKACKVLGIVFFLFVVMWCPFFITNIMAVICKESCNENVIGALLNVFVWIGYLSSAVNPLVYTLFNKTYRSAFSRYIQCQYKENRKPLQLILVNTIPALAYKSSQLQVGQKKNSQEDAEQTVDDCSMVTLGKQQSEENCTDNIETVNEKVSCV
smiles,measurement,setting,value
Fc1ccc(N2CCN(CCC3OCCc4ccccc43)CC2)cc1 (stereo unspecified) [CAS_170856-41-4],Ki,[1],5.8 nM
same,Ki,[2],678 nM
same,Ki,[3],181 nM
same,Ki,[4],134 nM
same,Ki,D(2) dopamine receptor,199 nM
same,Ki,[5],38 nM
